Measured values taken from patent US20110171174A1, “Synergistic Combinations of a Macrocyclic Inhibitor of HCV and a Nucleoside” (ORTHO-MCNEIL-JANSSEN PHARMACEUTICALS, INC., priority 2008, published 2011).

System: HCV replicon (Huh-7 luc/neo cells, NS3-NS5B regions of HCV type 1b)
Assay: HCV replicon assay (Huh-Luc cells, luciferase read-out)
Assay type: cell-based
Conditions: Hepatitis C virus, Huh-7, 72 h, three days incubation, luciferase activity, read-out: average EC50 value in the HCV replicon test
Text: The in vitro antiviral activity against HCV of the compound of formula I or of formula II can be tested in a cellular HCV replicon system based on Lohmann et al. (1999) Science 285:110-113, with the further modifications described by Krieger et al. (2001) Journal of Virology 75: 4614-4624 (incorporated herein by reference), which is further exemplified in the examples section. This model, while not a complete infection model for HCV, is widely accepted as the most robust and efficient model of autonomous HCV RNA replication currently available. The in vitro antiviral activity against HCV can also be tested by enzymatic tests.
The compounds of formula I were examined for activity in the inhibition of HCV RNA replication in a cellular assay. […] The cellular assay was based on a bicistronic expression construct, as described by Lohmann et al. (1999) Science vol. […]
The replicon cells were plated in 384 well plates in the presence of the test and control compounds which were added in various concentrations. Following an incubation of three days, HCV replication was measured by assaying luciferase activity (using standard luciferase assay substrates and reagents, and a Perkin Elmer ViewLux™ ultraHTS microplate imager). […] The inhibitory activity of the compound was monitored on the Huh-Luc cells, enabling a dose-response curve for each test compound. […]

Row | SMILES | EC50 [µM]
1 | COc1ccc2c(O[C@@H]3C[C@H]4C(=O)N[C@]5(C(=O)NS(=O)(=O)C6CC6)C[C@H]5C=CCCCCN(C)C(=O)[C@@H]4C3)cc(-c3nc(C(C)C)cs3)nc2c1C (stereo in doubt) [compound I, (1R,4R,6S,15R,17R)-cis-N-[17-[2-(4-isopropylthiazole-2-yl)-7-methoxy-8-methyl-quinolin-4-yloxy]-13-methyl-2,14-dioxo-3,13-diazatricyclo[13.3.0.0^4,6]octadec-7-ene-4-carbonyl](cyclopropyl)sulfonamide] | 0.008
2 | C[C@@H]1[C@H](n2ccc(N)nc2=O)O[C@@](CO)(N=[N+]=[N-])[C@H]1O [compound II, 4-amino-1-((2R,3 S,4S,5R)-5-azido-4-hydroxy-5-hydroxymethyl-3-methyltetrahydro-furan-2-yl)-1H-pyrimidin-2-one] | 5
